Target: α-glucosidase (α-Glu)
Assay: Screening of α-Glu inhibitors by fluorescence detection with guar gum-gold nanocluster-Fe3+ mixed dispersion (AAG substrate)
Type: biochemical
Conditions: read from calibration curve of inhibitory efficiency vs concentration; third incubation 37° C. for 40 min, PBS pH=7.0, AAG substrate; fluorescence at 610 nm; read-out: IC50 (concentration of the inhibitor required to inhibit 50% α-Glu activity)
Description: The present disclosure further provides a method for screening an α-Glu inhibitor, including the following steps: • providing a fluorescence-enhanced gold nanocluster-Fe^3+ mixed dispersion, where a fluorescence-enhanced gold nanocluster in the fluorescence-enhanced gold nanocluster-Fe^3+ mixed dispersion is the fluorescence-enhanced gold nanocluster in the above technical solution; • mixing an α-Glu inhibitor solution to be tested, an α-Glu solution, an AAG solution, and a PBS, and conducting third incubation to obtain a third incubation solution; • mixing the third incubation solution with the fluorescence-enhanced gold nanocluster-Fe^3+ mixed dispersion, and conducting fourth incubation to obtain a fourth incubation solution; and • subjecting the fourth incubation solution to fluorescence detection, and plotting a calibration curve of the α-Glu inhibitor to be tested according to a fluorescence emission intensity obtained by the fluorescence detection; according to the calibration curve of the α-Glu inhibitor to be tested, obtaining an IC50 of the α-Glu inhibitor to be tested to screen the α-Glu inhibitor. […]
In the present disclosure, the third incubation solution is mixed with the fluorescence-enhanced gold nanocluster-Fe^3+ mixed dispersion, and the fourth incubation is conducted to obtain the fourth incubation solution. […]

## COc1ccc([C@@H]2CC(=O)c3c(O)cc(O[C@@H]4O[C@H](CO[C@@H]5O[C@@H](C)[C@H](O)[C@@H](O)[C@H]5O)[C@@H](O)[C@H](O)[C@H]4O)cc3O2)cc1O [hesperidin]
  IC50: 101 µM
